The results in this text go back to US20260028354A1, “TETRAHYDRONAPHTHALENE DERIVATIVES AS ESTROGEN RECEPTOR DEGRADERS” (REGENT OF THE UNIVERSITY OF MICHIGAN, priority 2022, published 2026).

Broadly, the IC50 is the concentration needed to halve the response being measured. Broadly, the DC50 is the concentration giving 50% degradation.

Where two headings read alike, the source gives them in different places.

Assay [1] can be described thus: Cell growth assay (WST-8) for "B" compounds. As to conditions: T47D, read-out: Cell growth Inhibition in T47D cell line IC50. It is filed as cell-based. The procedure:
Cell Growth Assay. The cells were seeded at 1500/well in 96 well plates overnight. One day after the seeding, they were treated with indicated doses of compounds respectively, 4 days after the compound treatment, 10% WST-8 reagent was added to the culture medium and incubate in a CO2 incubator at 37° C. for 2.5 hours. Before reading, the plate was mixed gently on an orbital shaker for one minute to ensure homogeneous distribution of color. The absorbance was measured of each sample using a microplate reader at a wavelength of 450 nm. The relative absorbance was calculated against the vehicle control from three individually repeats.

Assay [2] is described as follows: Western blot analysis for "B" compounds. It is filed as cell-based. As to conditions: read-out: Traditional Western Degradation Potency (DC50). In a few lines: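 Target protein levels given as relative mean band intensity over GAPDH from scanned immunoblots. Lysates of treated cells in RIPA buffer, equalized by BCA, separated on 10% gels and transferred to PVDF.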
For orientation: In western blotting, separated proteins are transferred to a membrane and probed.

Take `O=C1CC[C@H](N2Cc3c(ccc4c3OC[C@H]3CN(CC5COC6(CCN(c7ccc([C@@H]8c9ccc(O)cc9CC[C@@H]8c8ccccc8)cc7)CC6)C5)CCN43)C2=O)C(=O)N1` (stereo partly drawn) [Compound B226, (3S)-3-((5aR)-7-((8-(4-((1R,2S)-6-hydroxy-2-phenyl-1,2,3,4-tetrahydronaphthalen-1-yl)phenyl)-1-oxa-8-azaspiro[4.5]decan-3-yl)methyl)-1-oxo-1,3,5,5a,6,7,8,9-octahydro-2H-pyrazino[1′,2′: 4,5][1,4]oxazino[2,3-e]isoindol-2-yl)piperidine-2,6-dione]: in assay [1], the IC50 was less than 0.001 µM. The same measure, in the same setting: the result for `O=C1CCC(N2Cc3c(ccc4c3OC[C@@H]3CN(C(=O)CN5CCN(c6ccc([C@@H]7c8ccc(O)cc8CC[C@@H]7c7ccccc7)cc6)CC5)CCN43)C2=O)C(=O)N1` (stereo partly drawn) [Compound B244, 3-((S)-7-(2-(4-(4-((1R,2S)-6-hydroxy-2-phenyl-1,2,3,4-tetrahydronaphthalen-1-yl)phenyl)piperazin-1-yl)acetyl)-1-oxo-1,3,5,5a,6,7,8,9-octahydro-2H-pyrazino[1′,2′:4,5][1,4]oxazino[2,3-e]isoindol-2-yl)piperidine-2,6-dione] reads less than 0.001 µM; that for `O=C1CCC(N2Cc3c(ccc4c3OC[C@H]3CN(C(=O)CN5CCN(c6ccc([C@@H]7c8ccc(O)cc8CC[C@@H]7c7ccccc7)cc6)CC5)CCN43)C2=O)C(=O)N1` (stereo partly drawn) [Compound B249, 3-((R)-7-(2-(4-(4-((1R,2S)-6-hydroxy-2-phenyl-1,2,3,4-tetrahydronaphthalen-1-yl)phenyl)piperazin-1-yl)acetyl)-1-oxo-1,3,5,5a,6,7,8,9-octahydro-2H-pyrazino[1′,2′:4,5][1,4]oxazino[2,3-e]isoindol-2-yl)piperidine-2,6-dione], less than 0.001 µM. For the molecule `O=C1CCC(N2Cc3c(ccc4c3OC[C@H]3CN(CC5CCN(c6ccc([C@@H]7c8ccc(O)cc8CC[C@@H]7c7ccccc7)cc6)CC5)CCN43)C2=O)C(=O)N1` (stereo partly drawn) [Compound B298, 3-((R)-7-((1-(4-((1R,2S)-6-hydroxy-2-phenyl-1,2,3,4-tetrahydronaphthalen-1-yl)phenyl)piperidin-4-yl)methyl)-1-oxo-1,3,5,5a,6,7,8,9-octahydro-2H-pyrazino[1′,2′:4,5][1,4]oxazino[2,3-e]isoindol-2-yl)piperidine-2,6-dione], the 50% degradation concentration (DC50) in assay [2] was in the range of 0.01 to 0.1 µM. Turning to `O=C1CCC(N2C(=O)c3cc4c(cc3C2=O)CC2(C4)CN(C(=O)CN3CC(Oc4ccc([C@@H]5c6ccc(O)cc6CC[C@@H]5c5ccccc5)cc4)C3)C2)C(=O)N1` (stereo partly drawn) [Compound B299, 2′-(2,6-dioxopiperidin-3-yl)-1-(2-(3-(4-((1R,2S)-6-hydroxy-2-phenyl-1,2,3,4-tetrahydronaphthalen-1-yl)phenoxy)azetidin-1-yl)acetyl)-5′,7′-dihydro-1'H-spiro[azetidine-3,6′-cyclopenta[f]isoindole]-1′,3′(2'H)-dione], the half-maximal degradation concentration (DC50) in assay [2] is more than 0.1 µM. Turning to `O=C1CCC(N2C(=O)c3cc4c(cc3C2=O)CC2(C4)CN(CC(=O)N3CC(Oc4ccc([C@@H]5c6ccc(O)cc6CC[C@@H]5c5ccccc5)cc4)C3)C2)C(=O)N1` (stereo partly drawn) [Compound B300, 2′-(2,6-dioxopiperidin-3-yl)-1-(2-(3-(4-((1R,2S)-6-hydroxy-2-phenyl-1,2,3,4-tetrahydronaphthalen-1-yl)phenoxy)azetidin-1-yl)-2-oxoethyl)-5′,7′-dihydro-1'H-spiro[azetidine-3,6′-cyclopenta[f]isoindole]-1′,3′(2′H)-dione], the DC50 in assay [2] is more than 0.1 µM.

For the molecule `O=C1CCC(N2Cc3cc4c(cc3C2=O)CN(CC2CN(CC3CCN(c5ccc([C@@H]6c7ccc(O)cc7CC[C@@H]6c6ccccc6)cc5)CC3)C2)C4=O)C(=O)N1` (stereo partly drawn) [Compound B301, 2-(2,6-dioxopiperidin-3-yl)-6-((1-((1-(4-((1R,2S)-6-hydroxy-2-phenyl-1,2,3,4-tetrahydronaphthalen-1-yl)phenyl)piperidin-4-yl)methyl)azetidin-3-yl)methyl)-2,3,6,7-tetrahydropyrrolo[3,4-f]isoindole-1,5-dione], the 50% degradation concentration (DC50) in assay [2] is more than 0.1 µM. Still for that read-out and setting: the same measure for `O=C1CCC(N2Cc3cc4c(cc3C2=O)CN(C2CN(CC3CCN(c5ccc([C@@H]6c7ccc(O)cc7CC[C@@H]6c6ccccc6)cc5)CC3)C2)C4=O)C(=O)N1` (stereo partly drawn) [Compound B302, 2-(2,6-dioxopiperidin-3-yl)-6-(1-((1-(4-((1R,2S)-6-hydroxy-2-phenyl-1,2,3,4-tetrahydronaphthalen-1-yl)phenyl)piperidin-4-yl)methyl)azetidin-3-yl)-2,3,6,7-tetrahydropyrrolo[3,4-f]isoindole-1,5-dione]: more than 0.1 µM. The same measure, in the same setting: the same measure for `O=C1CCC(N2Cc3cc4c(cc3C2=O)CN(C2CCN(CC3CCN(c5ccc([C@@H]6c7ccc(O)cc7CC[C@@H]6c6ccccc6)cc5)CC3)CC2)C4=O)C(=O)N1` (stereo partly drawn) [Compound B303, 2-(2,6-dioxopiperidin-3-yl)-6-(1-((1-(4-((1R,2S)-6-hydroxy-2-phenyl-1,2,3,4-tetrahydronaphthalen-1-yl)phenyl)piperidin-4-yl)methyl)piperidin-4-yl)-2,3,6,7-tetrahydropyrrolo[3,4-f]isoindole-1,5-dione]: more than 0.1 µM. On the same count and under the same terms, the same measure for `O=C1CCC(N2Cc3cc4c(cc3C2=O)C(=O)N(CC2CN(CC3CCN(c5ccc([C@@H]6c7ccc(O)cc7CC[C@@H]6c6ccccc6)cc5)CC3)C2)C4)C(=O)N1` (stereo partly drawn) [Compound B305, 2-(2,6-dioxopiperidin-3-yl)-6-((1-((1-(4-((1R,2S)-6-hydroxy-2-phenyl-1,2,3,4-tetrahydronaphthalen-1-yl)phenyl)piperidin-4-yl)mcthyl)azctidin-3-yl)methyl)-2,3,5,6-tctrahydropyrrolo[3,4-f]isoindole-1,7-dione]: more than 0.1 µM; for `Cn1cc(-c2ccc3c(c2)CC[C@H](c2ccccc2)[C@@H]3c2ccc(N3CCC4(CCN(C(=O)CN5Cc6cc7c(cc6C5)C(=O)N(C5CCC(=O)NC5=O)C7=O)CC4)CC3)cc2)cn1` (stereo partly drawn) [Compound B323, 2-(2,6-dioxopiperidin-3-yl)-6-(2-(9-(4-((1R,2S)-6-(1-methyl-1H-pyrazol-4-yl)-2-phenyl-1,2,3,4-tetrahydronaphthalen-1-yl)phenyl)-3,9-diazaspiro[5.5]undecan-3-yl)-2-oxoethyl)-6,7-dihydropyrrolo[3,4-f]isoindole-1,3(2H,5H)-dione]: more than 0.1 µM. In the case of `O=C1CCC(N2C(=O)c3cc4c(cc3C2=O)CN(CC(=O)N2CCC3(CC2)CCN(c2ccc([C@@H]5c6ccc(-c7cn[nH]c7)cc6CC[C@@H]5c5ccccc5)cc2)CC3)C4)C(=O)N1` (stereo partly drawn) [Compound B324, 2-(2,6-dioxopiperidin-3-yl)-6-(2-oxo-2-(9-(4-((1R,2S)-2-phenyl-6-(1H-pyrazol-4-yl)-1,2,3,4-tetrahydronaphthalen-1-yl)phenyl)-3,9-diazaspiro[5.5]undecan-3-yl)ethyl)-6,7-dihydropyrrolo[3,4-f]isoindole-1,3(2H,5H)-dione], the DC50 in assay [2] is more than 0.1 µM. Regarding `O=C1CC[C@H](N2Cc3c(ccc4c3OC[C@H]3CN(CC5CC6(C5)CN(c5ccc([C@@H]7c8ccc(O)cc8CC[C@@H]7c7ccccc7)cc5)C6)CCN43)C2=O)C(=O)N1` [Compound B351, (S)-3-((R)-7-((2-(4-((1R,2S)-6-hydroxy-2-phenyl-1,2,3,4-tetrahydronaphthalen-1-yl)phenyl)-2-azaspiro[3.3]heptan-6-yl)methyl)-1-oxo-1,3,5,5a,6,7,8,9-octahydro-2H-pyrazino[1′,2′:4,5][1,4]oxazino[2,3-e]isoindol-2-yl)piperidine-2,6-dione], the IC50 in assay [1] fell in the range of 0.001 to 0.01 µM.

On to `O=C1CC[C@H](N2Cc3cc4c(cc3C2=O)OCC2(CN(CC3CCN(c5ccc([C@@H]6c7ccc(O)cc7CC[C@@H]6c6ccccc6)cc5)CC3)C2)O4)C(=O)N1` [Compound B395, (S)-3-(1-((1-(4-((1R,2S)-6-hydroxy-2-phenyl-1,2,3,4-tetrahydronaphthalen-1-yl)phenyl)piperidin-4-yl)methyl)-6′-oxo-6′,8′-dihydro-3′H,7′H-spiro[azetidine-3,2′-[1,4]dioxino[2,3-f]isoindol]-7′-yl)piperidine-2,6-dione], for which the IC50 in assay [1] (T47D cell line) fell in the range of 0.001 to 0.01 µM. Consider `O=C1CC[C@H](N2Cc3c(ccc4c3OC[C@H]3CN(C[C@@H]5COC6(CCN(c7ccc([C@@H]8c9ccc(O)cc9CC[C@@H]8c8ccccc8)cc7)CC6)C5)CCN43)C2=O)C(=O)N1` [Compound B396, (S)-3-((R)-7-(((R)-8-(4-((1R,2S)-6-hydroxy-2-phenyl-1,2,3,4-tetrahydronaphthalen-1-yl)phenyl)-1-oxa-8-azaspiro[4.5]decan-3-yl)methyl)-1-oxo-1,3,5,5a,6,7,8,9-octahydro-2H-pyrazino[1′,2′:4,5][1,4]oxazino[2,3-e]isoindol-2-yl)piperidine-2,6-dione], for which the IC50 in assay [1] is less than 0.001 µM. The same measure, in the same setting: the result for `O=C1CC[C@H](N2Cc3c(ccc4c3OC[C@H]3CN(C[C@H]5COC6(CCN(c7ccc([C@@H]8c9ccc(O)cc9CC[C@@H]8c8ccccc8)cc7)CC6)C5)CCN43)C2=O)C(=O)N1` [Compound B397, (S)-3-((R)-7-(((S)-8-(4-((1R,2S)-6-hydroxy-2-phenyl-1,2,3,4-tetrahydronaphthalen-1-yl)phenyl)-1-oxa-8-azaspiro[4.5]decan-3-yl)methyl)-1-oxo-1,3,5,5a,6,7,8,9-octahydro-2H-pyrazino[1′,2′:4,5][1,4]oxazino[2,3-e]isoindol-2-yl)piperidine-2,6-dione] reads less than 0.001 µM.
